Assay results reported in article PMC4368516 (PLoS Neglected Tropical Diseases, 2015).
Where a name gives a salt, the structure may show the parent alone. Read-outs that look alike come from different tables or passages of the source.

How the values were obtained:
CqDOP2 [1] = target: T1, CqDOP2 (Culex quinquefasciatus, UniProt A0A0B5H0X6); experiment: HTRF cAMP accumulation assay, agonist response of CqDOP2 stably expressed in HEK293 cells; type: cell-based; conditions: for EC50 fold higher than that of dopamine, CqDOP2: cAMP response
AaDOP2 [2] = target: T2, AaDOP2 (Aedes aegypti, UniProt H6D5H2); conditions: cAMP response
T2 sequence (H6D5H2 1-476): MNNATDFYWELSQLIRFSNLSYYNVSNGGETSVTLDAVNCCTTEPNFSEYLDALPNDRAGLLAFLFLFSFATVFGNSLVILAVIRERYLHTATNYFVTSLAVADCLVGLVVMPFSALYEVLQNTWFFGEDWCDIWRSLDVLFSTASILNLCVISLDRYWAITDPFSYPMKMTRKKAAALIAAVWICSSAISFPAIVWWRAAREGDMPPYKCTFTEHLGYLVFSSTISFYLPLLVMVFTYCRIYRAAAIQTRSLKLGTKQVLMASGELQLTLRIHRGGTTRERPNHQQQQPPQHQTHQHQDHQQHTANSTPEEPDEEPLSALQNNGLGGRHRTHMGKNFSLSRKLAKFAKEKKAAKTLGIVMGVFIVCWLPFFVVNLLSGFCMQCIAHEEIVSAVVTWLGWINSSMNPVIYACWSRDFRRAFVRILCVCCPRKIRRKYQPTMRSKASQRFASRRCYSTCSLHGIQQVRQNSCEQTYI

AaDOP2 [3] = target: T2, AaDOP2; experiment: cell-based
[4] = test system: C. quinquefasciatus larvae; conditions: for LT50, Cq: at 400 μM; for earliest time debilitated larvae observed after exposure, C. quinquefasciatus: 400 μM; for larval mortality, C. quinquefasciatus, within the first 24 h: 24 h post exposure (S3 Fig)
Ae. aegypti larvae [5] = conditions: for LT50, Aa: at 400 μM
[6] = test system: C. quinquefasciatus larvae; experiment: whole plant or invertebrate; conditions: Culex quinquefasciatus, 72 h, read-out: LC50, Cq
Ae. aegypti larvae [7] = experiment: whole plant or invertebrate; conditions: Aedes aegypti, 72 h, read-out: LC50, Aa
AmDOP2 = conditions: ref [19]; cited from earlier work
CqDOP2 [8] = target: T1, CqDOP2; conditions: read-out: IC50 for inhibition of dopamine-stimulated cAMP response, CqDOP2; HEK293 cells; dopamine 3 μM; ±SEM
AaDOP2 [9] = target: T2, AaDOP2; experiment: cell-based; remark: listed apart in the source
CqDOP2 [10] = target: T1, CqDOP2; experiment: cell-based
Human D1 = target: T3, Human D1 (Homo sapiens, UniProt P21728); experiment: Inhibition of dopamine-stimulated cAMP response (HTRF) in HEK293 cells expressing human D1; type: cell-based
T3 construct: expressed in transfected cells

[11] = read-out: IC50 for inhibition of dopamine-stimulated cAMP response, Human D1

T3 sequence (P21728 whole entry): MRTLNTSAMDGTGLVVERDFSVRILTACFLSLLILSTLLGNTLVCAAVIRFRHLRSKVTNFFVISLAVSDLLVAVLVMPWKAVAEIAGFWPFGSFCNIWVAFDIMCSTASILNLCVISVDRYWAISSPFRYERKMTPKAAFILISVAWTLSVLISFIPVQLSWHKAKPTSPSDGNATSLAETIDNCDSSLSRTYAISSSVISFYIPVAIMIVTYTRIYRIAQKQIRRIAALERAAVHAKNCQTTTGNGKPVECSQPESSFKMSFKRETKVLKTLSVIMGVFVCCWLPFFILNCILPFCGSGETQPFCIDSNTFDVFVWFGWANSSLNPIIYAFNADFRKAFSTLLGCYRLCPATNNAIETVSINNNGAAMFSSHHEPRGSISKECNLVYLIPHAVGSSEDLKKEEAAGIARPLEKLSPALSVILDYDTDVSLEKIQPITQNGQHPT
T1 sequence (A0A0B5H0X6 entry or part of it): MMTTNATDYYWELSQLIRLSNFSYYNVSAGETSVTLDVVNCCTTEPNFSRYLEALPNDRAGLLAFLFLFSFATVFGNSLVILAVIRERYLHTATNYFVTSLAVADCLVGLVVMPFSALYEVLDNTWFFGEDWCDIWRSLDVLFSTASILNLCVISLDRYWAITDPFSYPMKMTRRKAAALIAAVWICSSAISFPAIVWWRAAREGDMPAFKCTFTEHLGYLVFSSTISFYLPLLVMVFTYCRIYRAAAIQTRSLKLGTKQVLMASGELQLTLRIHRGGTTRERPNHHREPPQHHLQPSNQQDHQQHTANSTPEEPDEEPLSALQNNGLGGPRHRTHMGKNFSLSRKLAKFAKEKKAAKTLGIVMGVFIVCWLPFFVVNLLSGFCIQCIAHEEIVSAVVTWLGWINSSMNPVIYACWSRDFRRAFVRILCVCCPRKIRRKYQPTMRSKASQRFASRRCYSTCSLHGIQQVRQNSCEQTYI

Compound	LT50, Cq ([4]; L3 larvae, ±SEM, n ≥ 3)	LT50, Aa (Ae. aegypti larvae [5]; L3 larvae, ±SEM, n ≥ 3)	LC50 [6]	LC50 (Ae. aegypti larvae [7])	IC50 (AaDOP2 [9])	IC50 (CqDOP2 [10])	further results
CNC[C@H](O)c1ccc(O)c(O)c1 [Epinephrine, (-)-epinephrine bitartrate]	–	–	–	–	–	–	EC50 (CqDOP2 [1]): 80.8 ± 21 µM; EC50 fold higher than that of dopamine, CqDOP2 (CqDOP2 [1]): at least 10 fold; EC50 fold higher than that of dopamine, AaDOP2 (AaDOP2 [2]): at least 10 fold; EC50 (AaDOP2 [3]): 41.1 ± 10.5 µM
CN1CCN2c3ccccc3Cc3ccccc3C2C1 (stereo not shown) [Mianserin]	17.9 ± 3.0 h	22.8 ± 1.3 h	–	–	–	–	–
CN(C)CCCN1c2ccccc2CCc2ccc(Cl)cc21 [Clomipramine]	27.3 ± 3.0 h	28.7 ± 3.1 h	89 ± 19 µM	88 ± 24 µM	–	–	–
NC[C@H](O)c1ccc(O)c(O)c1 [Norepinephrine, L (-)-norepinephrine bitartrate]	–	–	–	–	–	–	EC50 (CqDOP2 [1]): 52.2 ± 13.8 µM; EC50 fold higher than that of dopamine, CqDOP2 (CqDOP2 [1]): at least 10 fold; EC50 fold higher than that of dopamine, AaDOP2 (AaDOP2 [2]): at least 10 fold; fold more agonist required than dopamine, AmDOP2 (AmDOP2): approximately 25 fold; EC50 (AaDOP2 [3]): 30.3 ± 7.5 µM
CN(C)CC/C=C1/c2ccccc2Sc2ccc(Cl)cc21 [Chlorprothixene]	13.9 ± 2.0 h	22.2 ± 3.2 h	41 ± 7 µM	62 ± 9 µM	–	–	earliest time debilitated larvae observed after exposure, C. quinquefasciatus [4]: 1 h; larval mortality, C. quinquefasciatus, within the first 24 h [4]: > 70%; larval mortality, Ae. aegypti, after 48 h (Ae. aegypti larvae [5]; 48 h post exposure (S4 Fig)): > 70%; earliest time debilitated larvae observed after exposure, Ae. aegypti (Ae. aegypti larvae [5]; in vivo): 2 h
(±) butaclamol hydrochloride [(±)-Butaclamol]	–	–	–	–	–	–	IC50 (CqDOP2 [8]): 0.172 ± 0.015 µM
CN1CCc2cc(Cl)c(O)cc2[C@@H](c2ccccc2)C1 [SCH23390, SCH23390 hydrochloride]	–	–	–	–	0.709 ± 0.187 µM	0.745 ± 0.062 µM	–
CN(C)CCC=C1c2ccccc2CCc2ccccc21 [Amitriptyline, amitriptyline hydrochloride]	41.7 ± 2.1 h	47.8 ± 6.3 h	165 ± 37 µM	208 ± 137 µM	0.0064 ± 0.002 µM	0.0033 ± 0.0004 µM	IC50 (Human D1): 0.69 ± 0.052 µM
CN1CC2c3ccccc3Oc3ccc(Cl)cc3C2C1 (stereo not shown) [Asenapine, asenapine maleate]	24.2 ± 1.3 h	36.4 ± 1.6 h	50 ± 10 µM	102 ± 22 µM	0.0007 ± 0.0002 µM	0.0008 ± 3e-05 µM	IC50 (Human D1; [11]): 0.101 ± 0.002 µM; larval mortality, Ae. aegypti, after 48 h (Ae. aegypti larvae [5]; in vivo): > 70%
CCNC(=O)N1CCN(CCCC(c2ccc(F)cc2)c2ccc(F)cc2)CC1 [Amperozide, amperozide hydrochloride]	25.4 ± 1.5 h	46.6 ± 6.2 h	135 ± 35 µM	161 ± 20 µM	0.469 ± 0.071 µM	0.248 ± 0.042 µM	IC50 (Human D1; [11]): 16.2 ± 4.77 µM
OCCN1CCN(CC/C=C2/c3ccccc3Sc3ccc(C(F)(F)F)cc32)CC1 [Cis-(Z)-flupenthixol, cis-(Z)-flupenthixol dihydrochloride]	35.2 ± 6.1 h	42.6 ± 2.9 h	59 ± 22 µM	83 ± 25 µM	0.002 ± 0.0008 µM	0.002 ± 0.0005 µM	–
CSc1ccc2c(c1)C(N1CCN(C)CC1)Cc1ccccc1S2 (stereo not shown) [Methiothepin]	15.7 ± 4.9 h	30.6 ± 1.4 h	–	–	–	–	earliest time debilitated larvae observed after exposure, C. quinquefasciatus [4]: 1 h; larval mortality, C. quinquefasciatus, within the first 24 h [4]: > 70%; LC50 ([4]; read-out: LC50, Cq, L3 larvae, 72 h exposure, ±SEM, n ≥ 3): 44 ± 3 µM; larval mortality, Ae. aegypti, after 48 h (Ae. aegypti larvae [5]; 48 h post exposure (S4 Fig)): > 70%; LC50 (Ae. aegypti larvae [5]; read-out: LC50, Aa, L3 larvae, 72 h exposure, ±SEM, n ≥ 3): 69 ± 12 µM
CN(C)CCCN1c2ccccc2Sc2ccc(Cl)cc21 [Chlorpromazine, chlorpromazine hydrochloride]	16.7 ± 1.1 h	26.1 ± 0.9 h	64 ± 9 µM	88 ± 9 µM	0.019 ± 0.001 µM	0.0074 ± 0.002 µM	earliest time debilitated larvae observed after exposure, C. quinquefasciatus [4]: 1 h; larval mortality, C. quinquefasciatus, within the first 24 h [4]: > 70%; larval mortality, Ae. aegypti, after 48 h (Ae. aegypti larvae [5]; 48 h post exposure (S4 Fig)): > 70%
